According to US8030443B2, “Squamous cell carcinoma antigen-derived peptide binding to HLA-A24 molecule” (Kurume University, priority 2005, dated 2011):

System: peptide-specific IgG in sera of cancer patients and healthy donors
Assay: Measurement of anti-peptide IgG in plasma by LUMINEX multiplexed flow cytometric assay
Type: binding, human
Procedure: The levels of anti-peptide immunoglobulin G (IgG) were measured by the LUMINEX™ system (multiplexed flow cytometric assay) as previously reported (Komatsu N, Shichijo S, Nakagawa M, Itoh K. New multiplexed flow cytometric assay to measure anti-peptide antibody: a novel tool for monitoring immune responses to peptides used for immunization. Scand J Clin Lab Invest 2004; 64:1-11). In brief, plasma was incubated with 25 μl of peptide-coupled color-coded beads for 2 hr at room temperature on a plate shaker. After incubation, the mixture was washed with a vacuum manifold apparatus and incubated with 100 μl of biotinylated goat anti-human IgG (γ chain-specific)(BA-3080, Vector Laboratories, Burlingame, Calif., USA) for 1 h at room temperature. The plate was then washed, followed by the addition of 100 μl of streptavidin-PE (S-866, Molecular Probes, Eugene, Oreg., USA) into wells, and was incubated for 30 min at room temperature on a plate shaker. The bound beads were washed three times followed by the addition of 100 μl of Tween-PBS into each well. Fifty μl of sample was detected using the LUMINEX™ system (multiplexed flow cytometric assay). To confirm the specificity of IgG to a SCCA peptide, sample plasma was cultured in plates coated with a corresponding SCCA peptide, or with an irrelevant SCCA peptide. After the operation was repeated three times, the levels of the corresponding SCCA peptide-specific IgG in the resulting supernatant were determined by the LUMINEX™ system (multiplexed flow cytometric assay).
These 9 SCCA-derived peptides were screened based on their ability to be recognized by IgG in cancer patients. Peptide-specific IgG was measured by a multiplexed flow cytometric assay (LUMINEX™ (multiplexed flow cytometric assay)). The plasma samples were derived from 35 uterine cervical SCC patients, 10 breast adenocarcinoma patients, 10 pancreatic adenocarcinoma patients, 10 gastric adenocarcinoma, and 6 colon adenocarcinoma patients. The level of fluorescence intensity was judged to be significant when exceeded 100 at an 1/100 dilution.

In the case of “LFGEKTYLFL (SCCA 107-116 peptide) [SCCA-derived peptide, position 107-116]”, the “Total: healthy donors with significant peptide-reactive IgG / donors tested” value (10 healthy donors, significant when fluorescence intensity exceeded 100 at 1/100 dilution) is reported as 5/10, the “Total: cancer patients with significant peptide-reactive IgG / patients tested” value (71 cancer patients, significant when fluorescence intensity exceeded 100 at 1/100 dilution) is reported as 27/71 and the “Specificity of IgG reactive to the peptide” value (absorption assay: corresponding vs irrelevant SCCA peptide-coated wells (FIG. 3)) is reported as “confirmed by absorption assay”. For the same sequence, the Fluorescence intesity (serum of Breast Ca. patient #36, 1:100 dilution) was 211, the Fluorescence intesity (serum of Breast Ca. patient #37, 1:100 dilution) was 242 and the Fluorescence intesity (serum of Breast Ca. patient #38, 1:100 dilution) was 146. It also gave a Fluorescence intesity (serum of Breast Ca. patient #39, 1:100 dilution) of 149, a Fluorescence intesity (serum of Breast Ca. patient #40, 1:100 dilution) of 146 and a Fluorescence intesity (serum of Breast Ca. patient #41, 1:100 dilution) of 269. It also gave a Fluorescence intesity (serum of Breast Ca. patient #42, 1:100 dilution) of 219, a Fluorescence intesity (serum of Breast Ca. patient #43, 1:100 dilution) of 136 and a Fluorescence intesity (serum of Breast Ca. patient #44, 1:100 dilution) of 146. It also gave a Fluorescence intesity (serum of Breast Ca. patient #45, 1:100 dilution) of 272, a Fluorescence intesity (serum of Colon Ca. patient #66, 1:100 dilution) of 40 and a Fluorescence intesity (serum of Colon Ca. patient #67, 1:100 dilution) of 49. For the same sequence, the Fluorescence intesity (serum of Colon Ca. patient #68, 1:100 dilution) was 0, the Fluorescence intesity (serum of Colon Ca. patient #69, 1:100 dilution) was 20 and the Fluorescence intesity (serum of Colon Ca. patient #70, 1:100 dilution) was 91. For the same sequence, the Fluorescence intesity (serum of Colon Ca. patient #71, 1:100 dilution) was 70, the Fluorescence intesity (serum of Gastric Ca. patient #56, 1:100 dilution) was 38 and the Fluorescence intesity (serum of Gastric Ca. patient #57, 1:100 dilution) was 114. The Fluorescence intesity (serum of Gastric Ca. patient #58, 1:100 dilution) was 133, the Fluorescence intesity (serum of Gastric Ca. patient #59, 1:100 dilution) was 237 and the Fluorescence intesity (serum of Gastric Ca. patient #60, 1:100 dilution) was 24. It also gave a Fluorescence intesity (serum of Gastric Ca. patient #61, 1:100 dilution) of 282, a Fluorescence intesity (serum of Gastric Ca. patient #62, 1:100 dilution) of 37 and a Fluorescence intesity (serum of Gastric Ca. patient #63, 1:100 dilution) of 29. The Fluorescence intesity (serum of Gastric Ca. patient #64, 1:100 dilution) was 67, the Fluorescence intesity (serum of Gastric Ca. patient #65, 1:100 dilution) was 72 and the Fluorescence intesity (serum of Healthy Donor #1, 1:100 dilution) was 53. The Fluorescence intesity (serum of Healthy Donor #2, 1:100 dilution) was 297, the Fluorescence intesity (serum of Healthy Donor #3, 1:100 dilution) was 67 and the Fluorescence intesity (serum of Healthy Donor #4, 1:100 dilution) was 0. It also gave a Fluorescence intesity (serum of Healthy Donor #5, 1:100 dilution) of 331, a Fluorescence intesity (serum of Healthy Donor #6, 1:100 dilution) of 0 and a Fluorescence intesity (serum of Healthy Donor #7, 1:100 dilution) of 0. It also gave a Fluorescence intesity (serum of Healthy Donor #8, 1:100 dilution) of 454, a Fluorescence intesity (serum of Healthy Donor #9, 1:100 dilution) of 246 and a Fluorescence intesity (serum of Healthy Donor #10, 1:100 dilution) of 106. For the same sequence, the Fluorescence intesity (serum of Pancreas Ca. patient #46, 1:100 dilution) was 0, the Fluorescence intesity (serum of Pancreas Ca. patient #47, 1:100 dilution) was 115 and the Fluorescence intesity (serum of Pancreas Ca. patient #48, 1:100 dilution) was 431. The Fluorescence intesity (serum of Pancreas Ca. patient #49, 1:100 dilution) was 30, the Fluorescence intesity (serum of Pancreas Ca. patient #50, 1:100 dilution) was 29 and the Fluorescence intesity (serum of Pancreas Ca. patient #51, 1:100 dilution) was 2. The Fluorescence intesity (serum of Pancreas Ca. patient #52, 1:100 dilution) was 286, the Fluorescence intesity (serum of Pancreas Ca. patient #53, 1:100 dilution) was 43 and the Fluorescence intesity (serum of Pancreas Ca. patient #54, 1:100 dilution) was 126. The Fluorescence intesity (serum of Pancreas Ca. patient #55, 1:100 dilution) was 0, the Fluorescence intesity (serum of Uterine cervical Ca. patient #1, 1:100 dilution) was 20 and the Fluorescence intesity (serum of Uterine cervical Ca. patient #2, 1:100 dilution) was 106. The Fluorescence intesity (serum of Uterine cervical Ca. patient #3, 1:100 dilution) was 51, the Fluorescence intesity (serum of Uterine cervical Ca. patient #4, 1:100 dilution) was 109 and the Fluorescence intesity (serum of Uterine cervical Ca. patient #5, 1:100 dilution) was 55. For the same sequence, the Fluorescence intesity (serum of Uterine cervical Ca. patient #6, 1:100 dilution) was 925, the Fluorescence intesity (serum of Uterine cervical Ca. patient #7, 1:100 dilution) was 15 and the Fluorescence intesity (serum of Uterine cervical Ca. patient #8, 1:100 dilution) was 30. It also gave a Fluorescence intesity (serum of Uterine cervical Ca. patient #9, 1:100 dilution) of 84, a Fluorescence intesity (serum of Uterine cervical Ca. patient #10, 1:100 dilution) of 14 and a Fluorescence intesity (serum of Uterine cervical Ca. patient #11, 1:100 dilution) of 25. It also gave a Fluorescence intesity (serum of Uterine cervical Ca. patient #12, 1:100 dilution) of 41, a Fluorescence intesity (serum of Uterine cervical Ca. patient #13, 1:100 dilution) of 33 and a Fluorescence intesity (serum of Uterine cervical Ca. patient #14, 1:100 dilution) of 22. It also gave a Fluorescence intesity (serum of Uterine cervical Ca. patient #15, 1:100 dilution) of 134, a Fluorescence intesity (serum of Uterine cervical Ca. patient #16, 1:100 dilution) of 193 and a Fluorescence intesity (serum of Uterine cervical Ca. patient #17, 1:100 dilution) of 65. For the same sequence, the Fluorescence intesity (serum of Uterine cervical Ca. patient #18, 1:100 dilution) was 62, the Fluorescence intesity (serum of Uterine cervical Ca. patient #19, 1:100 dilution) was 70 and the Fluorescence intesity (serum of Uterine cervical Ca. patient #20, 1:100 dilution) was 90. It also gave a Fluorescence intesity (serum of Uterine cervical Ca. patient #21, 1:100 dilution) of 25, a Fluorescence intesity (serum of Uterine cervical Ca. patient #22, 1:100 dilution) of 19 and a Fluorescence intesity (serum of Uterine cervical Ca. patient #23, 1:100 dilution) of 75. It also gave a Fluorescence intesity (serum of Uterine cervical Ca. patient #24, 1:100 dilution) of 1457, a Fluorescence intesity (serum of Uterine cervical Ca. patient #25, 1:100 dilution) of 16 and a Fluorescence intesity (serum of Uterine cervical Ca. patient #26, 1:100 dilution) of 147. The Fluorescence intesity (serum of Uterine cervical Ca. patient #27, 1:100 dilution) was 39, the Fluorescence intesity (serum of Uterine cervical Ca. patient #28, 1:100 dilution) was 196 and the Fluorescence intesity (serum of Uterine cervical Ca. patient #29, 1:100 dilution) was 19. The Fluorescence intesity (serum of Uterine cervical Ca. patient #30, 1:100 dilution) was 41, the Fluorescence intesity (serum of Uterine cervical Ca. patient #31, 1:100 dilution) was 108 and the Fluorescence intesity (serum of Uterine cervical Ca. patient #32, 1:100 dilution) was 19. It also gave a Fluorescence intesity (serum of Uterine cervical Ca. patient #33, 1:100 dilution) of 170, a Fluorescence intesity (serum of Uterine cervical Ca. patient #34, 1:100 dilution) of 16 and a Fluorescence intesity (serum of Uterine cervical Ca. patient #35, 1:100 dilution) of 20.
